Laboratory results taken from PMC9704406 (Virulence, 2022).

Test system: Smh1
Type: biochemical, Legionella pneumophila
Conditions: 50 µM TSA, 30 min preincubation; enzyme 156.25 ng/ml; inhibitor

CC(/C=C/C(=O)NO)=C\[C@@H](C)C(=O)c1ccc(N(C)C)cc1 [Trichostatin A]
HDAC-Glo I/II luminescence assay: TSA significantly reduced Smh1 HDAC activity in comparison to Smh1 alone
